# Laboratory results taken from patent US5603917A, “Methods for the in vivo measurement of the concentration of NMR-detectable xenobiotic compounds” (Bracco International B. V., priority 1994, dated 1997).
# Where “and” joins values, the source holds several entries; their conditions need not be identical. Equal values may be shown once.
# Key:
# [1] = In vivo proton T1 measurement at rat tail, elimination of ProHance® (kidney status); details: intravenous 0.5 mmol/kg ProHance®, 20 MHz, 0.5 Tesla, 40° C.
# Procedure: The measurement site was the tail of the subject rat, which was hung into the sample tube of a Brucker/IBM PC 20 Spin Analyzer (commerically available).
# Rat proton T1 data were recorded both before and after intravenous injection of 0.5 mmol/kg ProHance®. The T1 measurements were made by the inversion-recovery method (Fukushima et al., Experimental Pulse NMR, a Nuts and Bolts Approach (Addison-Wesley 1981)) at 20 MHz and 0.5 Tesla at 40° C. with the IBM PC 20 relaxometer by sampling the section of the rat tail about 10 mm from the tip. The proton T1 change upon the injection of ProHance® was followed for 2 hours at 5 minute intervals after injection. The logarithms of the differences in the T1 relaxation rate (reciprocal of T1 relaxation time) before and after injection, log(1/T1 -1/T10), were plotted as a function of time. The elimination halftimes (T1/2) were calculated from the slopes of the log plots. The proton T1 data of a nephrectomized rat were also collected and used for comparison with the behaviour of normal rats (see FIG. 1).
# (§1) Runs involving simultaneous intravenous injection administrations of 0.5 mmol/kg ProHance®, ^153 Gd-labeled ProHance® and ^99m Tc(DTPA) (Techneplex™, technetium-diethylenetriamine pentaacetic acid), the latter to determine glomerular filtration rate by in vitro methods as a validation experiment, were also carried out. In these runs, rat blood samples and tail T1 data were acquired at the same time intervals from the same rat, and with multiple subjects (n=3). The blood samples were assayed in vitro to determine the amounts of ^153 Gd-labeled ProHance® and ^99m Tc(DTPA) in the blood, and the percentage changes in the blood pool concentrations of ^153 Gd-labeled ProHance® and ^99m Tc(DTPA) were plotted as a function of time to obtain the T1/2 values. The T1/2 data were also calculated from the slopes of the log(1/T1 -1/T10) versus time plots. These two sets of rat T1/2 data are shown in Table 1, and are also compared in FIG. 2.
# [2] = Blood sampling with in vitro assay of ^153 Gd-labeled ProHance® and ^99m Tc(DTPA), elimination from rat blood pool (validation experiment); format: in vivo; details: rats #5 to #7; blood samples; simultaneous intravenous injection; same values obtained for ^153 Gd and ^99m Tc
# Procedure: as §1
# [3] = normal rats #1 to #7, one value per rat, 2 hours at 5 minute intervals
Molecule,Elimination Halftime T1/2 From Slope ([1]; nephrectomized rat),Slope of Log (1/T1 - 1/T10) vs Time Plot ([1]; nephrectomized rat),"Elimination Halftime T1/2 From Slope [1, 3]","Slope of Log (1/T1 - 1/T10) vs Time Plot [1, 3]",Elimination Halftime T1/2 From ^153 Gd and ^99m Tc [2] [min]
"CC(O)CN1CCN(CC(=O)[O-])CCN(CC(=O)[O-])CCN(CC(=O)[O-])CC1.[Gd+3] (stereo not drawn) [ProHance®, Gd-hydroxypropyl tetraazacylododecanetriacetic acid]","2,000 ± 4,000 min.",0.0003 ± 0.0006,35 ± 5 min and 32 ± 2 min and 25 ± 4 min and 30 ± 3 min and 36 ± 2 min and 20 ± 2 min,0.0093 ± 0.0006 and 0.012 ± 0.0020 and 0.010 ± 0.0012 and 0.0083 ± 0.0005 and 0.015 ± 0.0016 and 0.0087 ± 0.0012,
CC(O)CN1CCN(CC(=O)[O-])CCN(CC(=O)[O-])CCN(CC(=O)[O-])CC1.[Gd+3] (stereo not drawn) [^153 Gd-labeled ProHance®],,,,,31
technetium-diethylenetriamine pentaacetic acid [^99m Tc(DTPA)],,,,,31
